Earlier results as cited in article PMC11904481 (ESMO Open, 2025).
Several values for one entry are separate records, joined by “and”; a condition that tells them apart may be missing. Equal entries are not always repeated.

System: patients
Settings: cited from earlier work; for diarrhea / nausea: patients treated with oral ERK inhibitor
[1] = ocular TEAE, oral ERK inhibitor

| SMILES | diarrhea | nausea [%] | blurred vision [1] [%] | oropharyngeal pain (oral ERK inhibitor) [%] | retinopathy [1] [%] | patients with dose reductions due to toxicity (phase I clinical trial, oral) [%] |
| --- | --- | --- | --- | --- | --- | --- |
| Cc1cnc(NC2CCOCC2)nc1-n1cnc(C(=O)N[C@H](CN)c2cc(F)cc(Cl)c2)c1 [ASN007] | 30% | 30 |  |  |  |  |
| Cn1nccc1Nc1nccc(-c2ccn([C@H](CO)c3ccc(Cl)c(F)c3)c(=O)c2)n1 [GDC-0994, (S)-1-(1-(4-chloro-3-fluorophenyl)-2-hydroxyethyl)-4-(2-((1-methyl-1H-pyrazol-5-yl)amino)pyrimidin-4-yl)pyridin-2(1H)-one] | 49% | 32 | 13 |  |  |  |
| Cn1nccc1Nc1nccc(-c2cc3c(s2)C(C)(C)N(CCN2CCOCC2)C3=O)n1 [LY3214996] |  |  | 15 |  |  |  |
| CS[C@@]1(C(=O)Nc2ccc3[nH]nc(-c4ccc(OC(C)C)nc4)c3c2)CCN(CC(=O)N2CC=C(c3ccc(-c4ncn(C)n4)cc3)CC2)C1 [MK-8353] | > 40% and 44% | 28 | 8 | 8 |  |  |
| CC(C)Nc1cc(-c2c[nH]c(C(=O)N[C@H](CO)c3cccc(Cl)c3)c2)c(Cl)cn1 [ulixertinib] | > 40% and 48% | 42 |  |  | 14 | 32 |
